Counter-ions that a name gives are not always drawn.
How the values were obtained:
Staphylococcus aureus = assay: In vitro antimicrobial zone of inhibition study; format: cell-based
Excerpt: The antimicrobial/antibacterial activity of the product is confirmed by the in vitro Antimicrobial Zone of Inhibition studies for the product against Staphylococcusaureus. The details of the studies are detailed below in Table 16.

[1] = Stability analysis of raw API (3 months, open & closed Petri dish) by stability indicating HPLC method and titration method; format: physicochemical; settings: for Fusidic Acid Assay (%) HPLC / Fusidic Acid Assay (%) Titration / Percentage Drop (%) HPLC / Percentage Drop (%) Titration / Sodium Fusidate Assay(%) HPLC / Sodium Fusidate Assay(%) Titration / Percentage (%) HPLC / Percentage (%) Titration: after 3 months; for Percentage Drop (%) HPLC / Percentage Drop (%) Titration: Fusidic acid API; for Percentage (%) HPLC / Percentage (%) Titration: Sodium Fusidate API
bacterial cells = settings: in vitro; cited from earlier work
gram-negative bacteria = settings: cited from earlier work
[2] = 20° C.; cited from earlier work
[3] = at the time of receipt of the API from the supplier

## CC(=O)O[C@H]1C[C@@]2(C)[C@@H](C[C@@H](O)[C@H]3[C@@]4(C)CC[C@@H](O)[C@@H](C)[C@@H]4CC[C@@]32C)/C1=C(\CCC=C(C)C)C(=O)O [Fusidic Acid, Fusidic acid]
Staphylococcus aureus; Dose 10 mcg
  Inference: Sensitive
  Zone Diameter Range (mm): 21-33 mm
Staphylococcus aureus; Dose 20 mcg
  Inference: Sensitive
  Zone Diameter Range (mm): 20-30 mm
Staphylococcus aureus; Dose 50 mcg
  Inference: Sensitive
  Zone Diameter Range (mm): 25-32 mm
[1]; 45° C. (Closed)
  Fusidic Acid Assay (%) HPLC: 92.12%
  Fusidic Acid Assay (%) Titration: 99.10%
  Percentage Drop (%) HPLC: 8.48%
  Percentage Drop (%) Titration: 1.50%
[1]; 45° C. (Open)
  Fusidic Acid Assay (%) HPLC: 89.52%
  Fusidic Acid Assay (%) Titration: 98.52%
  Percentage Drop (%) HPLC: 11.08%
  Percentage Drop (%) Titration: 2.08%
[1]; 45° C. (open condition)
  loss in 3 Months: about 11%
[1]; RT (Closed)
  Percentage Drop (%) HPLC: 6.23%
  Percentage Drop (%) Titration: 1.58%
  Fusidic Acid Assay (%) HPLC: 94.37%
  Fusidic Acid Assay (%) Titration: 99.02%
[1]; RT (Open)
  Percentage Drop (%) HPLC: 7.67%
  Percentage Drop (%) Titration: 1.39%
  Fusidic Acid Assay (%) HPLC: 92.93%
  Fusidic Acid Assay (%) Titration: 99.21%
[1]; [3]
  Fusidic Acid Initial (%): 100.6%
[1]; room temperature (open condition)
  loss in 3 Months: about 7.7%

## CC1(C)S[C@@H]2[C@H](NC(=O)Cc3ccccc3)C(=O)N2[C@H]1C(=O)O [Penicillin G]
Staphylococcus aureus; Dose 10 Units
  Inference: Resistant
  Zone Diameter Range (mm): 21-27 mm

## CC(=O)O[C@H]1C[C@@]2(C)[C@@H](C[C@@H](O)[C@H]3[C@@]4(C)CC[C@@H](O)[C@@H](C)[C@@H]4CC[C@@]32C)/C1=C(\CCC=C(C)C)C(=O)O [Sodium Fusidate, 3μ,11μ,16β-Trihydroxy 29-nor-8μ, 9β, 13μ, 14β-dammara-17(20) [10,21-cis], 24-dien-21-oic acid 16-acetate, sodium salt]
Bacterial cells
  time DNA synthesis continues after contact: 45 min
  time until bacterial cells stop dividing after contact with the antibiotic: ≤ 2 min
[1]; 45° C. (Closed)
  Sodium Fusidate Assay(%) HPLC: 92.96%
  Sodium Fusidate Assay(%) Titration: 97.16%
  Percentage (%) HPLC: 5.74%
  Percentage (%) Titration: 1.54%
[1]; 45° C. (Open)
  Sodium Fusidate Assay(%) HPLC: 92.65%
  Sodium Fusidate Assay(%) Titration: 97.07%
  Percentage (%) HPLC: 6.05%
  Percentage (%) Titration: 1.63%
[1]; 45° C. (open condition), sodium salt
  loss in 3 Months: about 6%
[1]; RT (Closed)
  Sodium Fusidate Assay(%) HPLC: 97.67%
  Sodium Fusidate Assay(%) Titration: 98.85%
  Percentage (%) HPLC: 1.03%
  Percentage (%) Titration: −0.15%
[1]; RT (Open)
  Sodium Fusidate Assay(%) HPLC: 96.25%
  Sodium Fusidate Assay(%) Titration: 97.71%
  Percentage (%) HPLC: 2.45%
  Percentage (%) Titration: 0.99%
[1]; Tables 1 and 2
  stability as an API compared with Fusidic acid: more stable than Fusidic acid
[1]; [3]
  Sodium Fusidate Initial (%): 98.7%
[1]; room temperature (open condition), sodium salt
  loss in 3 Months: about 2.5%
gram-negative bacteria
  activity against gram-negative bacteria: virtually inactive
[2]
  solubility in water: soluble in one part of water

From patent publication US20120040946A1 (APEX LABORATORIES PRIVATE LIMITED, priority 2009, published 2012)
